In patent publication US20140148443A1, “Novel Imidazolines as dual inhibitors of MDM2 and MDMX” (priority 2012, published 2014):
pIC50: −log10 of the molar value. Structures can show the parent of a compound that is named as a salt.

Columns and labels:
GST-tagged MDMX = target: T1, GST-tagged MDMX (Homo sapiens, UniProt O15151); test: HTRF binding assay of GST-tagged MDMX to p53 peptide
T1 sequence (O15151 1-490): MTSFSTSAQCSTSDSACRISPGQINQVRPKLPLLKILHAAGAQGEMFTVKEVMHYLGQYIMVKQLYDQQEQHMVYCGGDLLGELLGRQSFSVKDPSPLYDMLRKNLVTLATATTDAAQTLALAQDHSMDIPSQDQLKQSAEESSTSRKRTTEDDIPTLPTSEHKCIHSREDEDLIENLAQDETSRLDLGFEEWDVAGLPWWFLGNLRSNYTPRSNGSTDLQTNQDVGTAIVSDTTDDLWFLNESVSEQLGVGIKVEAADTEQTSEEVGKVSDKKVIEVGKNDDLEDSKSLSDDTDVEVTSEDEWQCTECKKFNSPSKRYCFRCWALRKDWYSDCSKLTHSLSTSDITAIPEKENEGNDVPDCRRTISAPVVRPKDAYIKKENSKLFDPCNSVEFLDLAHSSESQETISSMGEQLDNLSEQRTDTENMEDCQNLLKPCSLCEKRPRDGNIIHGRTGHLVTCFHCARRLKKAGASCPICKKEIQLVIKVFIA

[1] = target: recombinant GST-tagged MDM2 (Homo sapiens, UniProt Q00987); test: HTRF assay of interaction between p53 peptide and GST-tagged MDM2; conditions: inhibition of GST-MDM2 (160 ng/ml) binding to biotinylated p53-peptide
Sequence of recombinant GST-tagged MDM2 (Q00987 whole entry): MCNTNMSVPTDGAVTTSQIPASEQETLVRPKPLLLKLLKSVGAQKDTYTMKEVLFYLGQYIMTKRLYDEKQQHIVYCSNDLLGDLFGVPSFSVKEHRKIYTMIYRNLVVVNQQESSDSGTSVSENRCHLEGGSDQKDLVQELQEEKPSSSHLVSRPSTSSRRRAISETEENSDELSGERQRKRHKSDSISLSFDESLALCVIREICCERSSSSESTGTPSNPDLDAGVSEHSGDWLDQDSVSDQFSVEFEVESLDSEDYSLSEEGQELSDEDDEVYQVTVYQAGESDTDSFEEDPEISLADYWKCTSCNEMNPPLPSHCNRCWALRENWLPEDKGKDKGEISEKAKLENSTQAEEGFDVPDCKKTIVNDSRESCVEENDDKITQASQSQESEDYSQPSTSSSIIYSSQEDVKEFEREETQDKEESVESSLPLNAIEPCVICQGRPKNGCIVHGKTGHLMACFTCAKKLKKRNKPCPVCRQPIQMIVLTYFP
Summary of the method: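 Compounds were preincubated with 160 ng/ml GST-MDM2 and 90 nM N-terminally biotinylated p53-like peptide (final) in 20 mM TBS, 0.02% BSA, 1 mM DTT for 1 h at 37 °C. Eu-anti-GST antibody and streptavidin-APC were added for 30 min at room temperature; binding read as TR-FRET at 665 and 615 nm.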

| SMILES | pIC50 (GST-tagged MDMX) | pIC50 [1] |
| --- | --- | --- |
| CCOc1cc(Cl)c(S(C)(=O)=O)cc1C1=N[C@@](C)(c2ccc(Cl)cc2)[C@@](C)(c2ccc(Cl)cc2)N1C(=O)N1CCN(CC(=O)O)CC1 [Example 35, {4-[(4S,5R)-2-(4-Chloro-2-ethoxy-5-methanesulfonyl-phenyl)-4,5-bis-(4-chloro-phenyl)-4,5-dimethyl-4,5-dihydro-imidazole-1-carbonyl]-piperazin-1-yl}-acetic acid, hydrochloride] | 5.54 | 8.17 |
| CCC(C)Oc1cc(Cl)c(S(C)(=O)=O)cc1C1=N[C@@](C)(c2ccc(Cl)cc2)[C@@](C)(c2ccc(Cl)cc2)N1C(=O)N1CCN(CCCS(C)(=O)=O)CC1 (stereo partly drawn) [Example 44, [(4S,5R)-2-(2-sec-Butoxy-4-chloro-5-methanesulfonyl-phenyl)-4,5-bis-(4-chloro-phenyl)-4,5-dimethyl-4,5-dihydro-imidazol-1-yl]-[4-(3-methanesulfonyl-propyl)-piperazin-1-yl]-methanone] | 5.82 | 7.86 |
| CC(C)Oc1cc(Cl)c(S(C)(=O)=O)cc1C1=N[C@@](C)(c2ccc(Cl)cc2)[C@@](C)(c2ccc(Cl)cc2)N1C(=O)N1CCC(CC(N)=O)CC1 [Example 41, 2-{1-[(4S,5R)-2-(4-Chloro-2-isopropoxy-5-methanesulfonyl-phenyl)-4,5-bis-(4-chloro-phenyl)-4,5-dimethyl-4,5-dihydro-imidazole-1-carbonyl]-piperidin-4-yl}-acetamide] | 6.77 | 8.16 |
| CCOc1cc(Cl)c(S(C)(=O)=O)cc1C1=N[C@@](C)(c2ccc(Cl)cc2)[C@@](C)(c2ccc(Cl)cc2)N1C(=O)N1CCNC(=O)C1 [Example 2, 4-[(4S,5R)-2-(4-Chloro-2-ethoxy-5-methanesulfonyl-phenyl)-4,5-bis-(4-chloro-phenyl)-4,5-dimethyl-4,5-dihydro-imidazole-1-carbonyl]-piperazin-2-one] | 5.97 | 8.24 |
| CCCOc1cc(Cl)c(S(=O)(=O)N2CCCC2)cc1C1=N[C@@](C)(c2ccc(Cl)cc2)[C@@](C)(c2ccc(Cl)cc2)N1C(=O)N1CCN(CCCS(C)(=O)=O)CC1 [Example 55, {(4S,5R)-4,5-Bis-(4-chloro-phenyl)-2-[4-chloro-2-propoxy-5-(pyrrolidine-1-sulfonyl)-phenyl]-4,5-dimethyl-4,5-dihydro-imidazol-1-yl}-[4-(3-methanesulfonyl-propyl)-piperazin-1-yl]-methanone] | 5.40 | 7.74 |
| CC(C)Oc1cc(Cl)c(S(=O)(=O)NC(C)(C)C)cc1C1=N[C@@](C)(c2ccc(Cl)cc2)[C@@](C)(c2ccc(Cl)cc2)N1C(=O)N1CCC(CC(N)=O)CC1 [Example 60, 2-{1-[(4S,5R)-2-(5-tert-Butylsulfamoyl-4-chloro-2-isopropoxy-phenyl)-4,5-bis-(4-chloro-phenyl)-4,5-dimethyl-4,5-dihydro-imidazole-1-carbonyl]-piperidin-4-yl}-acetamide] | 6.24 | 7.82 |
